Experimental data taken from patent US12545685B2 (Daiichi Sankyo Company, Limited, priority 2011, dated 2026).

What follows are molecules tested against T1, Mdm2/p53 binding (GST-Mdm2 / His-p53) (Homo sapiens, UniProt Q00987, L33E) (assay: Mdm2/p53 binding assay (HTRF, His-p53 and GST-Mdm2)). Conditions: His-p53 (aa 1-132) and GST-Mdm2 (aa 25-108, L33E) 6.25 nM each; 25°C, 1 hour; values given as ranges.
T1 construct: Mdm2 partial protein having Mdm2 amino acids at positions 25 to 108
Method: A protein dilution containing 6.25 nM each of His-p53 (fusion protein of a p53 partial protein having p53 amino acids at positions 1 to 132, with a histidine protein) and GST-Mdm2 (fusion protein of an Mdm2 partial protein having Mdm2 amino acids at positions 25 to 108 with leucine residue 33 substituted by glutamic acid, with glutathione transferase) proteins was prepared using a protein buffer solution (20 mM HEPES pH 7.4, 150 mM NaCl, 0.1% BSA). This protein dilution was added in an amount of 8 μl/well to a 384-well plate (384-well low volume NBC, Corning Inc., catalog No: 3676).
Next, a test compound was diluted with DMSO to produce a protein buffer solution containing 10% dilution, and this buffer solution was added in an amount of 4 μl/well to the plate.
Subsequently, a solution containing an XL665-labeled anti-His antibody (HTRF monoclonal anti-6HIS antibody labeled with XL665 (catalog No: 61HISXLB), Schering/Cisbio Bioassays) and a europium (Eu)-labeled anti-GST antibody (HTRF monoclonal anti-GST antibody labeled with europium cryptate, Schering/Cisbio Bioassays, catalog No: 61GSTKLB) at concentrations of 2.5 μg/ml and 0.325 μg/ml, respectively, was prepared using an antibody diluting buffer solution (20 mM HEPES pH 7.4, 150 mM NaCl, 0.1% BSA, 0.5 M KF). These dilutions were added in an amount of 8 μl/well (total reaction solution volume: 20 μl/well). Then the plate was incubated at 25° ° C. for 1 hour.
Time-resolved fluorescence at 620 and 665 nm was measured at an excitation wavelength of 320 nm using a plate reader (ARVOsx, PerkinElmer Co., Ltd. or PHERAstar, BMG LABTECH). Ratio (R) was calculated using the measured values (RFU 620 nm and RFU 665 nm) according to the following formula: […]
BI: measured value at 665 nm of reaction solution (only each buffer solution) nonsupplemented with each protein, the compound, and the antibodies
A and D: each measured value at 665 nm and 620 nm of reaction solution supplemented with only Eu-labeled anti-GST antibody solution
The R value calculated from the well supplemented with His-p53, GST-Mdm2, the test compound, and each antibody was defined as R (sample). The R value calculated from the well supplemented with His-p53, GST-Mdm2, and each antibody but without the test compound was defined as R (control). The R value calculated from the well supplemented with GST-Mdm2 the test compound, and each antibody but without His-p53 was defined as R (background). T/C was calculated from the formula shown below. An IC50 value for Mdm2/p53 binding was calculated by sigmoid fitting.

T1 sequence (Q00987 25-108 L33E): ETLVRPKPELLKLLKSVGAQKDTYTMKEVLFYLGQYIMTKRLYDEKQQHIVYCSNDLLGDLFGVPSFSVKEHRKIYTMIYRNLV

SMILES | IC50 [nM]
O=C(N[C@H]1CC[C@H](c2nnc(CO)o2)CC1)[C@@H]1NC2(CC(CF)(CF)C2)[C@@]2(C(=O)Nc3cc(Cl)ccc32)[C@H]1c1cccc(Cl)c1F [Example 131, (3′R, 4′S,5′R)-6″-chloro-4′-(3-chloro-2-fluorophenyl)-3,3-bis(fluoromethyl)-N-[trans-4-[5-(hydroxymethyl)-1,3,4-oxadiazol-2-yl]cyclohexyl]-2″-oxo-1″,2″-dihydrodispiro[cyclobutane-1,2′-pyrrolidine-3′,3″-indole]-5′-carboxamide] | 50 to 100
CC1(C)CCC2(CC1)N[C@@H](C(=O)N[C@@H]1CC[C@@H](c3nnco3)OC1)[C@H](c1ccnc(Cl)c1F)[C@]21C(=O)Nc2nc(Cl)ccc21 [Example 50, (3′R, 4′S,5′R)-6″-chloro-4′-(2-chloro-3-fluoropyridin-4-yl)-4,4-dimethyl-N-[(3R,6S)-6-(1,3,4-oxadiazol-2-yl)tetrahydro-2H-pyran-3-yl]-2″-oxo-1″,2″-dihydrodispiro[cyclohexane-1,2′-pyrrolidine-3′,3″-pyrrolo[2,3-b]pyridine]-3′-carboxamide] | 50 to 100
CO[C@H]1C[C@@H](NC(=O)[C@@H]2NC3(CCC(C)(C)CC3)[C@@]3(C(=O)Nc4nc(Cl)ccc43)[C@H]2c2cccc(Cl)c2F)CO[C@@H]1CO [Example 58, (3′R, 4′S,5′R)-6″-chloro-4′-(3-chloro-2-fluorophenyl)-N-[(3R,5S,6R)-6-(hydroxymethyl)-5-methoxytetrahydro-2H-pyran-3-yl]-4,4-dimethyl-2″-oxo-1″,2″-dihydrodispiro[cyclohexane-1,2′-pyrrolidine-3′,3″-pyrrolo[2,3-b]pyridine]-5′-carboxamide] | 50 to 100
CC1(C)CCC2(CC1)N[C@@H](C(=O)N[C@H]1CO[C@H](CO)C(C)(O)C1)[C@H](c1ccnc(Cl)c1F)[C@]21C(=O)Nc2cc(Cl)ccc21 (single isomer, unassigned) [Example 85] | 1 to 50
CO[C@]1(CO)CC[C@H](NC(=O)[C@@H]2NC3(CCC(C)(C)CC3)[C@@]3(C(=O)Nc4cc(Cl)ccc43)[C@H]2c2cccc(Cl)c2F)CC1 [Example 73, (3′R, 4′S,5′R)-6″-chloro-4′-(3-chloro-2-fluorophenyl)-N-[cis-4-(hydroxymethyl)-4-methoxycyclohexyl]-4,4-dimethyl-2″-oxo-1″,2″-dihydrodispiro[cyclohexane-1,2′-pyrrolidine-3′,3″-indole]-5′-carboxamide] | 50 to 100

Second part, the molecule after the results:

IC50 [nM] | SMILES
1 to 50 | CC1(C)CCC2(CC1)N[C@@H](C(=O)N[C@@H]1CC[C@@H](C(=O)NCCO)OC1)[C@H](c1ccnc(Cl)c1F)[C@]21C(=O)Nc2cc(Cl)ccc21 [Example 103, (3′R, 4′S,5′R)-6″-chloro-4′-(2-chloro-3-fluoropyridin-4-yl)-N-{(3R,6S)-6-[(2-hydroxyethyl)carbamoyl]tetrahydro-2H-pyran-3-yl}-4,4-dimethyl-2″-oxo-1″,2″-dihydrodispiro[cyclohexane-1,2′-pyrrolidine-3′,3″-indole]-5′-carboxamide]
1 to 50 | CCN(C)C(=O)[C@@H]1CC[C@@H](NC(=O)[C@@H]2NC3(CCC(C)(C)CC3)[C@@]3(C(=O)Nc4cc(Cl)ccc43)[C@H]2c2ccnc(Cl)c2F)CO1 [Example 125, (3′R, 4′S,5′R)-6″-chloro-4′-(2-chloro-3-fluoropyridin-4-yl)-N-{(3R,6S)-6-[ethyl(methyl)carbamoyl]tetrahydro-2H-pyran-3-yl}-4,4-dimethyl-2″-oxo-1″,2″-dihydrodispiro[cyclohexane-1,2′-pyrrolidine-3′,3″-indole]-5′-carboxamide]
1 to 50 | CN(C)C(=O)C[C@@H]1CC[C@@H](NC(=O)[C@@H]2NC3(CC(CF)(CF)C3)[C@@]3(C(=O)Nc4cc(Cl)ccc43)[C@H]2c2cccc(Cl)c2F)CO1 [Example 153, (3′R, 4′S,5′R)-6″-chloro-4′-(3-chloro-2-fluorophenyl)-N-{(3R,6S)-6-[2-(dimethylamino)-2-oxoethyl]tetrahydro-2H-pyran-3-yl}-3,3-bis(fluoromethyl)-2″-oxo-1″,2″-dihydrodispiro[cyclobutane-1,2′-pyrrolidine-3′,3′-indole]-5′-carboxamide]
